Source: patent US9957271B2, “Substituted bicyclic aza-heterocycles and analogues as sirtuin modulators” (GlaxoSmithKline, LLC, priority 2012, dated 2018)
Like-named read-outs stand apart in the source and are kept apart here.

Target: T1, SIRT1 (Homo sapiens, UniProt Q96EB6)
T1 sequence (Q96EB6 1-747): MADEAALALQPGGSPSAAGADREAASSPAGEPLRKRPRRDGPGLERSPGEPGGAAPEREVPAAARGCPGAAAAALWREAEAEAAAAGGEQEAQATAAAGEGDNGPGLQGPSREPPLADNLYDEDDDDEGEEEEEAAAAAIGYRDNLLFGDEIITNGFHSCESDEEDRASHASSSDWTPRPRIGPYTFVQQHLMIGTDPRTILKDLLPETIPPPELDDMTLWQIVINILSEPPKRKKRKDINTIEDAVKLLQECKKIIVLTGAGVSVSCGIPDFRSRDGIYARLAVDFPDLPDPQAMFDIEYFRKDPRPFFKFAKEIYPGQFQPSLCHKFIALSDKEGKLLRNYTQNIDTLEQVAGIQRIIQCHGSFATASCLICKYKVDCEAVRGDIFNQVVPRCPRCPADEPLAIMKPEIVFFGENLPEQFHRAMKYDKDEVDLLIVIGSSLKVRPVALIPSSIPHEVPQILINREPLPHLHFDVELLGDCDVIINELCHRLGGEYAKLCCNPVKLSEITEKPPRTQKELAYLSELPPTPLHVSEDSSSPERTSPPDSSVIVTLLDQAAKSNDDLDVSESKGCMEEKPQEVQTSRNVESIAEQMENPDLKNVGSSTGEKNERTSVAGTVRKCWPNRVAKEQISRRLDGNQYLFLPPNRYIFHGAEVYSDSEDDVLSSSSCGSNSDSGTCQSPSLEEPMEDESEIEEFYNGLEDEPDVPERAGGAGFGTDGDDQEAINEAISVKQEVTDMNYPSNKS
Assay: Trp mass spectrometry assay of SIRT1 activity
Assay type: biochemical
Settings: for Trp EC1.5 (μM): concentration giving 150% activation of SIRT1; for Emax: read-out: Trp % Fold Act
Method in brief: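 His-tagged SIRT1 expressed in E. coli BL21(DE3), 10 nM, incubated 25 min at 25° C. with 0.5 μM Ac-RHKK(Ac)W-NH2 peptide and 120 μM βNAD+ in 50 mM HEPES pH 7.5, […], 1 mM DTT, 0.05% BSA; formic acid stop. OAADPR or deacetylated peptide measured by mass spectrometry; EC1.5 and percent maximum activation versus DMSO control.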

[1] = Trp assay, percent maximum fold activation
[2] = percent maximum fold activation of SIRT1, Trp peptide substrate

| Structure (SMILES) | Trp EC1.5 (μM) (Trp assay) | Emax [1] | Emax [2] |
| --- | --- | --- | --- |
| CN(C)[C@H]1CCN(c2ccc3ncc(C(=O)Nc4ccncc4F)n3n2)C1 [Compound 869] | B (EC1.5 1-25 μM) | < 350% | – |
| Cc1nc2ccc(N3CCC(F)(F)C3)nn2c1C(=O)Nc1cccnn1 [Compound 1005] | – | – | ≥ 350% |
| O=C(Nc1ccc(C(F)(F)F)nc1)c1cnc2ccc(N3CC[C@H](F)C3)nn12 [Compound 919] | C (EC1.5>25 μM) | < 350% | – |
| O=C(Nc1cncc(F)c1)c1cnc2ccc(N3CC[C@H](O)C3)nn12 [Compound 985] | – | < 350% | – |
| O=C(Nc1cccnc1)c1cnc2ccc(N3CCC(C(F)(F)F)C3)nn12 (stereo not drawn) [Compound 958] | – | ≥ 350% | – |
| CC1CCN(c2ccc3ncc(C(=O)Nc4cccnc4)n3n2)C1 (stereo not drawn) [Compound 976] | – | ≥ 350% | – |
| Cc1nc2c(OC[C@H](O)CO)cc(-c3ccccc3C(F)(F)F)nn2c1C(=O)Nc1ccc(F)cn1 [Compound 835] | A (EC1.5<1 μM) | ≥ 350% | – |
| COc1cc(NC(=O)c2cnc3ccc(N4CC[C@H](F)C4)nn23)ncn1 [Compound 922] | C (EC1.5>25 μM) | < 350% | – |
| Cc1nc2c(OC[C@H](O)CO)cc(-c3ccccc3C(F)(F)F)nn2c1C(=O)Nc1ccncc1F [Compound 843] | A (EC1.5<1 μM) | ≥ 350% | – |
| O=C(Nc1ccccn1)c1cnc2ccc(N3CCC[C@H](F)C3)nn12 [Compound 986] | – | ≥ 350% | – |
| O=C(Nc1cnc2ccc(-c3ccccc3OC(F)(F)F)nn12)c1cnccn1 [Compound 314] | B (EC1.5 1-25 μM) | < 350% | – |
| CC1CCN(c2ccc3ncc(C(=O)Nc4cccnn4)n3n2)C1 (stereo not drawn) [Compound 978] | – | ≥ 350% | – |
| Cc1nc2c(OC[C@H](O)CO)cc(-c3ccccc3C(F)(F)F)nn2c1C(=O)Nc1cccnc1 [Compound 862] | A (EC1.5<1 μM) | ≥ 350% | – |
| O=C(Nc1ccc(F)cn1)c1cnc2ccc(N3CCC[C@H](F)C3)nn12 [Compound 988] | – | ≥ 350% | – |
| O=C(Nc1cccnc1)c1cnn2ccc(N3CCCC3C(F)(F)F)nc12 (stereo not drawn) [Compound 1000] | – | – | ≥ 350% |
| O=C(Nc1cccnc1)c1cnc2ccc(N3CC(F)(F)C3)nn12 [Compound 913] | B (EC1.5 1-25 μM) | < 350% | – |
| Cc1nc2ccc(N3CC[C@H](F)C3)nn2c1C(=O)Nc1ccccn1 [Compound 840] | B (EC1.5 1-25 μM) | ≥ 350% | – |

| Structure (SMILES) | Trp EC1.5 (μM) (Trp assay) | Emax [1] | Emax [2] |
| --- | --- | --- | --- |
| O=C(Nc1ccccn1)c1cnn2ccc(N3CCCCC3C(F)(F)F)nc12 (stereo not drawn) [Compound 957] | – | ≥ 350% | – |
| O=C(Nc1cccnn1)c1cnc2ccc(N3CCC[C@H](F)C3)nn12 [Compound 989] | – | ≥ 350% | – |
| COc1nccc(NC(=O)c2cnc3ccc(N4CC[C@H](F)C4)nn23)n1 [Compound 918] | B (EC1.5 1-25 μM) | < 350% | – |
| O=C(Nc1cccnn1)c1cnc2ccc(N3CCCC(C(F)(F)F)C3)nn12 (stereo not drawn) [Compound 902] | A (EC1.5<1 μM) | ≥ 350% | – |
| O=C(Nc1ccncc1F)c1cnc2ccc(N3CC[C@H](F)C3)nn12 [Compound 839] | B (EC1.5 1-25 μM) | < 350% | – |
| CN(C)[C@H]1CCN(c2ccc3ncc(C(=O)Nc4cnccn4)n3n2)C1 [Compound 873] | B (EC1.5 1-25 μM) | ≥ 350% | – |
| CN(C)c1cccc(NC(=O)c2cnc3ccc(-c4cccc(OC[C@H](O)CO)c4)nn23)n1 [Compound 876] | A (EC1.5<1 μM) | ≥ 350% | – |
| Cc1cnc(NC(=O)c2c(C)nc3c(OC[C@H](O)CO)cc(-c4ccccc4C(F)(F)F)nn23)s1 [Compound 861] | A (EC1.5<1 μM) | ≥ 350% | – |
| O=C(Nc1ccccn1)c1cnc2ccc(N3CC[C@H](O)C3)nn12 [Compound 981] | – | < 350% | – |
| O=C(Nc1cccnc1)c1cnc2ccc(N3CCCC3C(F)(F)F)nn12 (stereo not drawn) [Compound 966, N-(pyridin-3-yl)-6-(2-(trifluoromethyl)pyrrolidin-1-yl)imidazo[1,2-b]pyridazine-3-carboxamide] | A (EC1.5<1 μM) | ≥ 350% | – |
| O=C(Nc1cccnc1)c1cnc2ccc(N3CCC(F)(F)C3)nn12 [Compound 908] | B (EC1.5 1-25 μM) | < 350% | – |
| Cc1nc(NC(=O)c2cnc3ccc(N4CC[C@H](F)C4)nn23)sc1C [Compound 892] | A (EC1.5<1 μM) | < 350% | – |
| O=C(Nc1cccnn1)c1cnn2ccc(N3CCCC3C(F)(F)F)nc12 (stereo not drawn) [Compound 1022] | – | – | ≥ 350% |
| CN1CCN(c2ccc3ncc(C(=O)Nc4cccnc4)n3n2)CC1 [Compound 946] | C (EC1.5>25 μM) | < 350% | – |
| Cc1nc2ccc(N3CC[C@H](N(C)C)C3)nn2c1C(=O)Nc1cccnc1 [Compound 877] | B (EC1.5 1-25 μM) | < 350% | – |
| Cc1nc2ccc(N3CC[C@H](N(C)C)C3)nn2c1C(=O)Nc1ccccn1 [Compound 867] | B (EC1.5 1-25 μM) | ≥ 350% | – |
| C[C@@H]1CN(c2ccc3ncc(C(=O)Nc4cccnn4)n3n2)CCO1 [Compound 1003] | – | – | ≥ 350% |

Continued, values first:

| Trp EC1.5 (μM) (Trp assay) | Emax [1] | Emax [2] | Structure (SMILES) |
| --- | --- | --- | --- |
| – | – | ≥ 350% | Cc1nn2ccc(N3CCC[C@@H]3C(F)(F)F)nc2c1C(=O)Nc1cncc(F)c1 [Compound 1069] |
| – | – | ≥ 350% | CC1CCCN1c1ccn2ncc(C(=O)Nc3cncc(F)c3)c2n1 (stereo not drawn) [Compound 1039] |
| – | – | ≥ 350% | O=C(Nc1cccnn1)c1cnn2ccc(N3CCC(C(F)(F)F)CC3)nc12 [Compound 1062] |
| – | – | ≥ 350% | Cc1nc(NC(=O)c2cnn3ccc(N4CCC[C@H]4C(F)(F)F)nc23)sc1C [Compound 1032, (S)-N-(4,5-dimethylthiazol-2-yl)-5-(2-(trifluoromethyl)pyrrolidin-1-yl)pyrazolo[1,5-a]pyrimidine-3-carboxamide] |
| – | – | < 350% | O=C(Nc1ccccn1)c1cnn2ccc(N3CCC[C@@H]3C(F)(F)F)nc12 [Compound 1090] |
| – | – | ≥ 350% | Cc1nn2ccc(N3CCC[C@H]3C(F)(F)F)nc2c1C(=O)Nc1cccnc1 [Compound 1047] |
| – | – | ≥ 350% | O=C(Nc1cc(-c2cnco2)ccn1)c1cnn2ccc(N3CCC(C(F)(F)F)CC3)nc12 [Compound 1074] |
| – | – | ≥ 350% | COc1nccc(NC(=O)c2c(C)nn3ccc(N4CCC[C@@H]4C(F)(F)F)nc23)n1 [Compound 1085] |
| – | – | ≥ 350% | Cc1cncc(NC(=O)c2cnn3ccc(N4CCC[C@H]4C(F)(F)F)nc23)c1 [Compound 1027] |
| – | – | ≥ 350% | O=C(Nc1cccc(-c2cnco2)n1)c1cnn2ccc(N3CCC(C(F)(F)F)CC3)nc12 [Compound 1083] |
| – | – | ≥ 350% | Cc1nc(NC(=O)c2cnn3ccc(N4CCC(C(F)(F)F)CC4)nc23)sc1C [Compound 1065] |
| – | – | ≥ 350% | O=C(Nc1cccnc1)c1cnn2ccc(N3CCC(C(F)(F)F)CC3)nc12 [Compound 1066] |
| – | – | ≥ 350% | Cc1nn2ccc(N3CCC[C@H]3C(F)(F)F)nc2c1C(=O)Nc1cccnn1 [Compound 1034] |
| – | – | ≥ 350% | O=C(Nc1cccnc1)c1cnn2ccc(N3CCC[C@H]3C(F)(F)F)nc12 [Compound 1026] |
| – | – | ≥ 350% | O=C(Nc1cccnn1)c1cnn2ccc(N3CCCC(C(F)(F)F)C3)nc12 (stereo not drawn) [Compound 1023] |
| – | – | ≥ 350% | Cc1nc(NC(=O)c2c(C)nn3ccc(N4CCC[C@@H]4C(F)(F)F)nc23)sc1C [Compound 1082] |
| – | – | < 350% | COc1nccc(NC(=O)c2cnc3ccc(N4CCC[C@@H]4C)nn23)n1 [Compound 1051] |
